Experimental data taken from patent US12599672B2, “KRAS proteolysis targeting chimeras” (PAQ Therapeutics Inc., priority 2023, dated 2026).

Tests used:
Format in all cases: cell-based
[1] = target: T1, KRAS G12D (Homo sapiens, UniProt P01116, G12D); test: KRAS G12D HiBit assay; conditions: AsPc-1-KRAS (G12D)-HiBit-KI cell, compound treatment for 24 hours; for DC50: absolute DC50
T1 construct: AsPc-1-KRAS (G12D)-HiBit-KI cell (Pharmaron); host or cells: AsPc-1-KRAS (G12D)-HiBit-KI cells (HiBiT knock-in at the endogenous KRAS locus)
T1 sequence (P01116 1-188 isoform P01116-2 G12D): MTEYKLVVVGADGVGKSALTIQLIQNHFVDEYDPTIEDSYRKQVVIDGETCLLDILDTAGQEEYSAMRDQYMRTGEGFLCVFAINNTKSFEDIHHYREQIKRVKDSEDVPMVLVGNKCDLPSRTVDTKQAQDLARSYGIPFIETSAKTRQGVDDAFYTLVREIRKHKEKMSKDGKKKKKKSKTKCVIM
Outline: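 Cells were treated for 24 h with compounds in a 3-fold, 10-point dilution series from a 0.3 mM DMSO stock, then equilibrated 15 min at room temperature. KRAS G12D HiBiT levels were read by luminescence after lytic Nano-Glo HiBiT reagent with LgBiT; inhibition calculated relative to 0.1% DMSO high control.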

[2] = target: T2, KRAS (Homo sapiens, UniProt P01116); test: KRASamp MSD assay; conditions: KE39 (KRAS amplified) cells, treated with test compounds for 24 hr, MSD readout of KRAS degradation
T2 construct: endogenous in cells; host or cells: KE39 (KRAS amplified) cells
T2 sequence (P01116 1-188 isoform P01116-2): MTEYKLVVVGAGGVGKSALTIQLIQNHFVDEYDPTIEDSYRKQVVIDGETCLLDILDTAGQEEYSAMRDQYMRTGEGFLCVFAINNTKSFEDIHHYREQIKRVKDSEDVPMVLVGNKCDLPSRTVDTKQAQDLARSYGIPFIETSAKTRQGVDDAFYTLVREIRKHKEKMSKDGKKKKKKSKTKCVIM
Outline: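 KRAS-amplified KE39 cells treated with compound for 24 hr, then lysed in RIPA buffer with protease/phosphatase inhibitors. KRAS protein measured by MSD sandwich immunoassay against a recombinant WT KRAS standard curve; DC50 derived from curve fitting of degradation.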

[3] = target: T3, KRAS G12V (Homo sapiens, UniProt P01116, G12V); test: KRAS G12V HiBit assay; conditions: SW620-KRAS (G12V)-HiBit-KI cells, compound treatment for 24 hours, class symbols
T3 construct: SW620-KRAS (G12V)-HiBit-KI cell (Pharmaron); host or cells: SW620-KRAS (G12V)-HiBit-KI cells (HiBiT knock-in at the endogenous KRAS locus)
T3 sequence (P01116 1-188 isoform P01116-2 G12V): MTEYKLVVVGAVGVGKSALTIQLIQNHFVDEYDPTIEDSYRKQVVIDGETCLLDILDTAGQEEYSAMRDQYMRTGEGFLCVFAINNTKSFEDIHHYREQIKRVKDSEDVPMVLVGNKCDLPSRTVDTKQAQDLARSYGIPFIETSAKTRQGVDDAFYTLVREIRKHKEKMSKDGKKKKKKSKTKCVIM
Outline: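 HiBiT-tagged KRAS G12V cells treated 24 h with compound in a 3-fold, 10-point series (0.3 mM DMSO stock); lytic HiBiT reagent with LgBiT added after 15 min room-temperature equilibration. Degradation calculated against 0.1% DMSO high control.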

CCc1c(F)ccc2cc(O)cc(-c3ncc4c(N5CCC[C@@](C)(O)C5)nc(OC[C@@]56CCCN5[C@H](COC(=O)N5CCC(CN7CCC(c8ccc9c(c8)n(C)c(=O)n9C8CCC(=O)NC8=O)C(F)(F)C7)CC5)CC6)nc4c3F)c12 (stereo partly drawn) [Compound 398, ((3S,7aS)-7a-(((7-(8-ethyl-7-fluoro-3-hydroxynaphthalen-1-yl)-8-fluoro-4-((R)-3-hydroxy-3-methylpiperidin-1-yl)pyrido[4,3-d]pyrimidin-2-yl)oxy)methyl)hexahydro-1H-pyrrolizin-3-yl)methyl 4-((4-(1-(2,6-dioxopiperidin-3-yl)-3-methyl-2-oxo-2,3-dihydro-1H-benzo[d]imidazol-5-yl)-3,3-difluoropiperidin-1-yl)methyl)piperidine-1-carboxylate]
DC50 ([1]; class symbols): < 100 nM | DC50 [2]: < 1 nM | DC50 [3]: < 10 nM

C#Cc1c(F)ccc2cc(O)cc(-c3ncc4c(N5CCC[C@@](C)(O)C5)nc(OC[C@@]56CCCN5[C@H](COC(=O)N5CCC(OC7CCN(c8ccc9c(c8)n(C)c(=O)n9C8CCC(=O)NC8=O)CC7)CC5)CC6)nc4c3F)c12 (stereo partly drawn) [Compound 155, ((3S,7aS)-7a-(((7-(8-Ethynyl-7-fluoro-3-hydroxynaphthalen-1-yl)-8-fluoro-4-((R)-3-hydroxy-3-methylpiperidin-1-yl)pyrido[4,3-d]pyrimidin-2-yl)oxy)methyl)hexahydro-1H-pyrrolizin-3-yl)methyl 4-((1-(1-(2,6-dioxopiperidin-3-yl)-3-methyl-2-oxo-2,3-dihydro-1H-benzo[d]imidazol-5-yl)piperidin-4-yl)oxy)piperidine-1-carboxylate]
DC50 ([1]; class symbols): < 100 nM | DC50 [2]: < 1 nM | DC50 [3]: < 10 nM

CCc1c(F)ccc2cc(O)cc(-c3ncc4c(N5CCC[C@@](C)(O)C5)nc(OC[C@@]56CCCN5[C@H](COC(=O)N5CCN(CC7CCN(c8ccc9c(c8)n(C)c(=O)n9C8CCC(=O)NC8=O)CC7)CC5)CC6)nc4c3F)c12 (stereo partly drawn) [Compound 97, [(3S,8S)-8-[[7-(8-ethyl-7-fluoro-3-hydroxy-1-naphthyl)-8-fluoro-4-[(3R)-3-hydro-xy-3-methyl-1-piperidyl]pyrido[4,3-d]pyrimidin-2-yl]oxymethyl]-1,2,3,5,6,7-hexahydropyrrolizin-3-yl]methyl 4-[[1-[1-(2,6-dioxo-3-piperidyl)-3-methyl-2-oxo-benzimidazol-5-yl]-4-piperidyl]methyl]piperazine-1-carboxylate]
DC50 ([1]; class symbols): < 100 nM | Dmax ([1]; class symbols): > 50% | DC50 [2]: < 1 nM | DC50 [3]: < 10 nM

CCc1c(F)ccc2cc(O)cc(-c3ncc4c(N5CCC[C@@](C)(O)C5)nc(OC[C@@]56CCCN5[C@H](COC(=O)NC5CCN(CC7CCN(c8ccc9c(c8)n(C)c(=O)n9C8CCC(=O)NC8=O)CC7)CC5)CC6)nc4c3F)c12 (stereo partly drawn) [Compound 428, ((3S,7aS)-7a-(((7-(8-ethyl-7-fluoro-3-hydroxynaphthalen-1-yl)-8-fluoro-4-((R)-3-hydroxy-3-methylpiperidin-1-yl)pyrido[4,3-d]pyrimidin-2-yl)oxy)methyl)hexahydro-1H-pyrrolizin-3-yl)methyl (1-((1-(1-(2,6-dioxopiperidin-3-yl)-3-methyl-2-oxo-2,3-dihydro-1H-benzo[d]imidazol-5-yl)piperidin-4-yl)methyl)piperidin-4-yl)carbamate]
DC50 ([1]; class symbols): < 100 nM | DC50 [2]: 1 to 10 nM | DC50 [3]: 10 to 100 nM

CCc1c(F)ccc2cc(O)cc(-c3ncc4c(N5CCC[C@@](C)(O)C5)nc(OC[C@@]56CCCN5[C@H](COC(=O)N5CC7(CCN(CC#Cc8ccc9c(c8)n(C)c(=O)n9C8CCC(=O)NC8=O)CC7)C5)CC6)nc4c3F)c12 (stereo partly drawn) [Compound 453, ((3S,7aS)-7a-(((7-(8-Ethyl-7-fluoro-3-hydroxynaphthalen-1-yl)-8-fluoro-4-((R)-3-hydroxy-3-methylpiperidin-1-yl)pyrido[4,3-d]pyrimidin-2-yl)oxy)methyl)hexahydro-1H-pyrrolizin-3-yl)methyl 7-(3-(1-(2,6-dioxopiperidin-3-yl)-3-methyl-2-oxo-2,3-dihydro-1H-benzo[d]imidazol-5-yl)prop-2-yn-1-yl)-2,7-diazaspiro[3.5]nonane-2-carboxylate]
DC50 ([1]; class symbols): < 100 nM | DC50 [2]: < 1 nM | DC50 [3]: < 10 nM

CCc1c(F)ccc2cc(O)cc(-c3ccc4c(N5CCC[C@@](C)(O)C5)nc(OC[C@@]56CCCN5[C@H](COC(=O)N5CCC7(CC5)CC(N5CCC(c8ccc9c(c8)n(C)c(=O)n9C8CCC(=O)NC8=O)CC5)C7)CC6)nc4c3F)c12 (stereo partly drawn) [Compound 355, ((3S,7aS)-7a-(((7-(8-ethyl-7-fluoro-3-hydroxynaphthalen-1-yl)-8-fluoro-4-((R)-3-hydroxy-3-methylpiperidin-1-yl)quinazolin-2-yl)oxy)methyl)hexahydro-1H-pyrrolizin-3-yl)methyl 2-(4-(1-(2,6-dioxopiperidin-3-yl)-3-methyl-2-oxo-2,3-dihydro-1H-benzo[d]imidazol-5-yl)piperidin-1-yl)-7-azaspiro[3.5]nonane-7-carboxylate]
DC50 ([1]; class symbols): < 100 nM | DC50 [2]: < 1 nM | DC50 [3]: < 10 nM

CCc1c(F)ccc2cc(O)cc(-c3ncc4c(N5CCCCCC5)nc(OC[C@@]56CCCN5[C@H](COC(=O)N5CCC7(CC5)CC(N5CCC(c8ccc9c(c8)n(C)c(=O)n9C8CCC(=O)NC8=O)CC5)C7)CC6)nc4c3F)c12 (stereo partly drawn) [Compound 344, ((3S,7aS)-7a-(((4-(azepan-1-yl)-7-(8-ethyl-7-fluoro-3-hydroxynaphthalen-1-yl)-8-fluoropyrido[4,3-d]pyrimidin-2-yl)oxy)methyl)hexahydro-1H-pyrrolizin-3-yl)methyl 2-(4-(1-(2,6-dioxopiperidin-3-yl)-3-methyl-2-oxo-2,3-dihydro-1H-benzo[d]imidazol-5-yl)piperidin-1-yl)-7-azaspiro[3.5]nonane-7-carboxylate]
DC50 ([1]; numeric bounds given in place of class symbols): > 100 nM | DC50 [2]: 1 to 10 nM | DC50 [3]: > 100 nM

C#Cc1c(F)ccc2cc(O)cc(-c3ncc4c(N5CCC[C@@](C)(O)C5)nc(OCC5(CN6CCC7(CC6)CCN(c6cccc8c6n(C)c(=O)n8C6CCC(=O)NC6=O)CC7)CC5)nc4c3F)c12 (stereo partly shown) [Compound 67]
DC50 ([1]; class symbols): < 100 nM | DC50 [2]: 1 to 10 nM | DC50 [3]: < 10 nM

CCc1c(F)ccc2cc(O)cc(-c3ncc4c(N5CCC[C@@](C)(O)C5)nc(OC[C@@]56CCCN5[C@H](COC(=O)N5CC7(CCC(CN8CCC(c9ccc%10c(c9)n(C)c(=O)n%10C9CCC(=O)NC9=O)CC8)CC7)C5)CC6)nc4c3F)c12 (stereo partly drawn) [Compound 448, ((3S,7aS)-7a-(((7-(8-ethyl-7-fluoro-3-hydroxynaphthalen-1-yl)-8-fluoro-4-((R)-3-hydroxy-3-methylpiperidin-1-yl)pyrido[4,3-d]pyrimidin-2-yl)oxy)methyl)hexahydro-1H-pyrrolizin-3-yl)methyl 7-((4-(1-(2,6-dioxopiperidin-3-yl)-3-methyl-2-oxo-2,3-dihydro-1H-benzo[d]imidazol-5-yl)piperidin-1-yl)methyl)-2-azaspiro[3.5]nonane-2-carboxylate]
DC50 ([1]; class symbols): < 100 nM | DC50 [2]: < 1 nM | DC50 [3]: < 10 nM

C#Cc1c(F)ccc2cc(O)cc(-c3ncc4c(N5CCC[C@@](C)(O)C5)nc(OC[C@@]56CCCN5[C@H](COC(=O)N5CCC7(CCC(N8CCC(c9ccc%10c(c9)n(C)c(=O)n%10C9CCC(=O)NC9=O)CC8)CC7)CC5)CC6)nc4c3F)c12 (stereo partly drawn) [Compound 413, ((3S,7aS)-7a-(((7-(8-ethynyl-7-fluoro-3-hydroxynaphthalen-1-yl)-8-fluoro-4-((R)-3-hydroxy-3-methylpiperidin-1-yl)pyrido[4,3-d]pyrimidin-2-yl)oxy)methyl)hexahydro-1H-pyrrolizin-3-yl)methyl 9-(4-(1-(2,6-dioxopiperidin-3-yl)-3-methyl-2-oxo-2,3-dihydro-1H-benzo[d]imidazol-5-yl)piperidin-1-yl)-3-azaspiro[5.5]undecane-3-carboxylate]
DC50 ([1]; class symbols): < 100 nM | DC50 [2]: < 1 nM | DC50 [3]: < 10 nM

CCc1c(F)ccc2cc(O)cc(-c3ncc4c(N5CCC[C@](C)(N)C5)nc(OC[C@@]56CCCN5[C@H](COC(=O)N5CCC7(CC5)CC(N5CCC(c8ccc9c(c8)n(C)c(=O)n9C8CCC(=O)NC8=O)CC5)C7)CC6)nc4c3F)c12 (stereo partly drawn) [Compound 478, ((3S,7aS)-7a-(((4-((S)-3-amino-3-methylpiperidin-1-yl)-7-(8-ethyl-7-fluoro-3-hydroxynaphthalen-1-yl)-8-fluoropyrido[4,3-d]pyrimidin-2-yl)oxy)methyl)hexahydro-1H-pyrrolizin-3-yl)methyl 2-(4-(1-(2,6-dioxopiperidin-3-yl)-3-methyl-2-oxo-2,3-dihydro-1H-benzo[d]imidazol-5-yl)piperidin-1-yl)-7-azaspiro[3.5]nonane-7-carboxylate]
DC50 ([1]; class symbols): < 100 nM | DC50 [2]: < 1 nM | DC50 [3]: < 10 nM
